Values of other authors in patent US20200376001A1, “USE OF ANDROGEN FOR TREATING GASTROINTESTINAL DISORDERS” (priority 2012, published 2020).
Like-named read-outs stand apart in the source and are kept apart here.

How the values were obtained:
[1] = biological target: T1, Sex Hormone Binding Globulin (SHBG) (Homo sapiens, UniProt P04278); conditions: greater than that of testosterone
T1 sequence (P04278 30-402): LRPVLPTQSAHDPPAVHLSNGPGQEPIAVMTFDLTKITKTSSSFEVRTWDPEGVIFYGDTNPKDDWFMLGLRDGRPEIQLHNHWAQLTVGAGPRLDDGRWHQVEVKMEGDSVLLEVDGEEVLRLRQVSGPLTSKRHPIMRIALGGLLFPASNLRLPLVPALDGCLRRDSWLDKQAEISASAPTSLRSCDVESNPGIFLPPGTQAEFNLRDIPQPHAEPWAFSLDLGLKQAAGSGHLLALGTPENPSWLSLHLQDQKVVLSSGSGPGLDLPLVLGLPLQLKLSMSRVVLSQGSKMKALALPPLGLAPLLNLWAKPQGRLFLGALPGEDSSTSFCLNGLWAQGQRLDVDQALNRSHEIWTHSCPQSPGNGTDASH

[2] = tested on: Sex Hormone Binding Globulin (SHBG); conditions: for decrease of SHBG (serum concentration): serum SHBG in the body after administration of synthetic androgen
[3] = compared with danazol

Compound | affinity for SHBG relative to testosterone [1] | decrease of SHBG (serum concentration) [2] [%] | decrease of SHBG (serum concentration) ([2]; listed as Danazol) | potency mg for mg relative to danazol ([2]; SHBG reduction, relative to danazol) [times] | side effects and hirsutism [3]
C[C@]12CC[C@H]3[C@@H](CCC4=CC(=O)CC[C@@H]43)[C@@H]1CC[C@@H]2O [Nandrolone, nandrolone] | about three |  |  |  | 
C#C[C@]1(O)CC[C@H]2[C@@H]3CCC4=Cc5oncc5C[C@]4(C)[C@H]3CC[C@@]21C [danazol] |  | 80 | does this as well |  | 
C[C@]12Cc3c[nH]nc3C[C@@H]1CC[C@@H]1[C@@H]2CC[C@@]2(C)[C@H]1CC[C@]2(C)O [stanozolol] |  | 80 |  | 100 | reduces side effects and hirsutism caused by danazol
